Measurements taken from patent publication US11083729B2, “Methods of treating cancer with small molecule NF-κB inhibitors” (ImmuneTarget, Inc., priority 2017, dated 2021).
Each block holds one compound with its values, some of them ahead of it.

What was measured:
KATO III = assay: CellTiter-Glo IG50, Example 8, KATO III; type: cell-based; settings: Homo sapiens, 72 hours
Experimental: (§1) Various pancreatic, liver, colon, breast, and stomach cancer cell lines were exposed to the NF-κB inhibitors of the present invention, including, for example, IT-839, IT-843, IT-848, and IT-878, and assessed for IG50 in the CellTiter Glo 2.0 assay.
(§2) The cells were cultured in an atmosphere of 37° C., 5% CO2 and 95% humidity. All culture media and FBS were purchased from GIBCO, Hyclone or Sigma, USA. The media used for cell culture is described in the table below.
(§3) The cells were harvested during the logarithmic growth period and counted. Cell concentrations were adjusted to the appropriate number in appropriate medium and 90 μl cell suspensions were added to 96-well plates. When cells were added, the plates were shaken gently to distribute the cells evenly. Cells were incubated at 37° C. and 5% CO2.
(§4) 3× serial dilutions of test compound stock solutions with respective solvents were prepared. The stock solutions were diluted with culture medium to generate 10× working solutions of the test compounds. 10 μl of the 10× test compound solutions were added to each well in triplicate for each concentration. Plates were incubated for 72 hours in a humidified incubator at 37° C. and 5% CO2.
(§5) CellTiter-Glo (CTG) solution was thawed and equilibrated to room temperature. 50 μl of CTG were added to each well and the contents were mixed for 2 minutes on a plate shaker. Cells were incubated for 10 minutes before luminescence signal was recorded using Envision.
(§6) Cell viability was plotted with GraphPad Prism version 5 and the IG50 was calculated for each cell line. The graphical curves were fitted using a nonlinear regression model with a sigmoidal dose response. IG50 is the concentration of test drug where 100×T/C=50 (the optical density of the test well after a 3-day period of exposure to test drug is T; the control optical density is C).

MKN45 = assay: CellTiter-Glo IG50, Example 8, MKN45; type: cell-based; settings: Homo sapiens, MKN-45, MKN45, 72 hours
Experimental: as §1, §2, §3, §4, §5, §6

MCF-7 = assay: CellTiter-Glo IG50, Example 8, MCF-7; type: cell-based; settings: Homo sapiens, MCF7, MCF-7, 72 hours
Experimental: as §1, §2, §3, §4, §5, §6

MIAPACA-2 = assay: CellTiter-Glo IG50, Example 8, MIAPACA-2; type: cell-based; settings: Homo sapiens, MIA PaCa-2, MIAPACA-2, 72 hours
Experimental: as §1, §2, §3, §4, §5, §6

HCT116 = assay: CellTiter-Glo IG50, Example 8, HCT116; type: cell-based; settings: Homo sapiens, HCT-116, HCT116, 72 hours
Experimental: as §1, §2, §3, §4, §5, §6

HepG2 [1] = assay: CellTiter-Glo IG50, Example 8, HepG2; type: cell-based; settings: Homo sapiens, HepG2, 72 hours
Experimental: as §1, §2, §3, §4, §5, §6

Capan-1 = assay: CellTiter-Glo IG50, Example 8, Capan-1; type: cell-based; settings: Homo sapiens, Capan-1, 72 hours
Experimental: as §1, §2, §3, §4, §5, §6

PLC/PRF/5 [2] = assay: CellTiter-Glo IG50, Example 8, PLC/PRF/5; type: cell-based; settings: Homo sapiens, PLC/PRF/5, 72 hours
Experimental: as §1, §2, §3, §4, §5, §6

MDA-MB-231 = assay: CellTiter-Glo IG50, Example 8, MDA-MB-231; type: cell-based; settings: Homo sapiens, MDA-MB-231, 72 hours
Experimental: as §1, §2, §3, §4, §5, §6

LoVo = assay: CellTiter-Glo IG50, Example 8, LoVo; type: cell-based; settings: Homo sapiens, 72 hours
Experimental: as §1, §2, §3, §4, §5, §6

AGS = assay: CellTiter-Glo IG50, Example 8, AGS; type: cell-based; settings: Homo sapiens, 72 hours
Experimental: as §1, §2, §3, §4, §5, §6

PANC-1 = assay: CellTiter-Glo IG50, Example 8, PANC-1; type: cell-based; settings: Homo sapiens, PANC-1, 72 hours
Experimental: as §1, §2, §3, §4, §5, §6

HT-29 = assay: CellTiter-Glo IG50, Example 8, HT-29; type: cell-based; settings: Homo sapiens, HT-29, 72 hours
Experimental: as §1, §2, §3, §4, §5, §6

T47D = assay: CellTiter-Glo IG50, Example 8, T47D; type: cell-based; settings: Homo sapiens, 72 hours
Experimental: as §1, §2, §3, §4, §5, §6

Hep3B [3] = assay: CellTiter-Glo IG50, Example 8, Hep3B; type: cell-based; settings: Homo sapiens, 72 hours
Experimental: as §1, §2, §3, §4, §5, §6

c-Rel protein = target: T1, c-Rel protein (Homo sapiens, UniProt Q04864); assay: Electrophoretic Mobility Shift Assay (EMSA), c-Rel binding to CD28RE oligonucleotide; settings: 10 nM c-Rel protein
T1 sequence (Q04864 1-619): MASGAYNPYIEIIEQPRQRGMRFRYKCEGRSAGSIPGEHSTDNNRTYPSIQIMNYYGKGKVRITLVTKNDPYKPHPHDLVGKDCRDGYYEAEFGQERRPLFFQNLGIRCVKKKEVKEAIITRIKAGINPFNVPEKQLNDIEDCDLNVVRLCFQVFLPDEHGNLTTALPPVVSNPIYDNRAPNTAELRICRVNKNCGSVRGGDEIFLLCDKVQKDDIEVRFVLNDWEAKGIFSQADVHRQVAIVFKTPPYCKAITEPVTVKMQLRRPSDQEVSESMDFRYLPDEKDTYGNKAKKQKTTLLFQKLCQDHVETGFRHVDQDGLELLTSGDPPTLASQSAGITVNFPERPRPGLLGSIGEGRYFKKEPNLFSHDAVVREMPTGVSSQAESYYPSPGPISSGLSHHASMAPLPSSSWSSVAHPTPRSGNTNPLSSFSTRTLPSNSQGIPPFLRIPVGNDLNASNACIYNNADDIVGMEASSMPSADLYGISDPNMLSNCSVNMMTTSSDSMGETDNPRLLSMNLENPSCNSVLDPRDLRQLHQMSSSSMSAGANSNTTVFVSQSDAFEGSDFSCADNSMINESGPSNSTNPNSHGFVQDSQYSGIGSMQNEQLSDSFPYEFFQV
Experimental: DNA binding reaction (20 μL) was carried out in 1×DNA Binding Buffer (10 mM Tris, 40 mM NaCl, 1 mM EDTA, 4% glycerol) with 10 nM c-Rel protein and 0.5 ng phosphor-labeled CD28RE oligonucleotide for 10 minutes at room temperature in 96-well plates. Test compounds, in serial dilutions, were added into each well, and further incubated for 15 minutes before loading onto native 5% polyacrylamide gel. Electrophoresis proceeded for 2.5 hours at 160V. Radioactive signals were quantified using Phospho-Imager. IC50 of compounds of example 1 to 75 were determined by quantifying the intensity of Rel/NF-κB inhibition in EMSA using phospho-imager. An example of EMSA data of the present invention is shown for compound 6 in FIG. 2.

SNU878 = assay: CellTiter-Glo IG50, Example 9 HCC panel, SNU878; type: cell-based; settings: SNU878, 72 hours
Experimental: as §3, §4, §5, §6, §2
(§7) Following the cell culture protocol and data analysis methods described in Example 8, the following IG50 results (in μM) were observed: […]

Hep3B [4] = assay: CellTiter-Glo IG50, Example 9 HCC panel, Hep3B; type: cell-based; settings: Homo sapiens, 72 hours
Experimental: as §3, §4, §5, §6, §2, §7

PLC/PRF/5 [5] = assay: CellTiter-Glo IG50, Example 9 HCC panel, PLC/PRF/5; type: cell-based; settings: Homo sapiens, PLC/PRF/5, 72 hours
Experimental: as §3, §4, §5, §6, §2, §7

PBMC = assay: CellTiter-Glo IG50, Example 9 HCC panel, PBMC; type: cell-based; settings: 72 hours
Experimental: as §3, §4, §5, §6, §2, §7

HUH7 = assay: CellTiter-Glo IG50, Example 9 HCC panel, HUH7; type: cell-based; settings: Homo sapiens, Huh-7, HUH7, 72 hours
Experimental: as §3, §4, §5, §6, §2, §7

HepG2 [6] = assay: CellTiter-Glo IG50, Example 9 HCC panel, HepG2; type: cell-based; settings: Homo sapiens, HepG2, 72 hours
Experimental: as §3, §4, §5, §6, §2, §7

JHH5 = assay: CellTiter-Glo IG50, Example 9 HCC panel, JHH5; type: cell-based; settings: JHH5, 72 hours
Experimental: as §3, §4, §5, §6, §2, §7

IC50 (c-Rel protein): < 1 µM
Compound: COCCOCCOc1ccc2cc3c(=O)[nH]c(=O)nc-3oc2c1F [compound 63]

IC50 (c-Rel protein): < 1 µM
Compound: COCCOCCOc1ccc2cc3c(=O)[nH]c(=O)nc-3oc2c1 [compound 61, 8-(2-(2-methoxyethoxy)ethoxy)-2H-chromeno[2,3-d]pyrimidine-2,4(3H)-dione]

IC50 (SNU878): > 16 µM
IC50 (Hep3B [4]): 2.34 µM
IC50 (PLC/PRF/5 [5]): 8.51 µM
IC50 (HUH7): 3.39 µM
IC50 (HepG2 [6]): 4.27 µM
IC50 (JHH5): > 16 µM
Compound: CCCCCCCOc1ccc2cc3c(=O)[nH]c(=O)nc-3oc2c1Cl [IT-846]
IC50 (PBMC): 0.456 µM

IC50 (c-Rel protein): < 2 µM
Compound: CCOc1cccc2cc3c(=O)[nH]c(=O)nc-3oc12 [compound 2, 9-ethoxy-2H-chromeno[2,3-d]pyrimidine-2,4(3H)-dione]

IC50 (c-Rel protein): < 0.5 µM
Compound: CC(C)CCOc1ccc2cc3c(=O)[nH]c(=O)nc-3oc2c1Cl [compound 40]

The remaining lines, values behind:

Compound: CC(C)CCCOc1cc2oc3nc(=O)[nH]c(=O)c-3cc2cc1F [IT-839]
IC50 (KATO III): > 16 µM
IC50 (MKN45): > 16 µM
IC50 (MCF-7): > 16 µM
IC50 (MIAPACA-2): > 16 µM
IC50 (HCT116): > 16 µM
IC50 (HepG2 [1]): 10.5 µM
IC50 (Capan-1): > 16 µM
IC50 (PLC/PRF/5 [2]): > 16 µM
IC50 (MDA-MB-231): 2.01 µM
IC50 (LoVo): 4.34 µM
IC50 (AGS): > 16 µM
IC50 (PANC-1): 6.93 µM
IC50 (HT-29): > 16 µM
IC50 (T47D): > 16 µM
IC50 (Hep3B [3]): 3.35 µM

Compound: CCCCCOc1cc2oc3nc(=O)[nH]c(=O)c-3cc2cc1F [compound 30]
IC50 (c-Rel protein): < 0.5 µM

Compound: CCOc1ccc2cc3c(=O)[nH]c(=O)nc-3oc2c1 [compound 13, 8-ethoxy-2H-chromeno[2,3-d]pyrimidine-2,4(3H)-dione]
IC50 (c-Rel protein): < 1 µM

Compound: CCCCCCCOc1cc2oc3nc(=O)[nH]c(=O)c-3cc2cc1F [compound 32]
IC50 (c-Rel protein): < 0.5 µM

Compound: COCCCCOc1ccc2cc3c(=O)[nH]c(=O)nc-3oc2c1Cl [compound 66, 9-chloro-8-(4-methoxybutoxy)-2H-chromeno[2,3-d]pyrimidine-2,4(3H)-dione]
IC50 (c-Rel protein): < 1 µM

Compound: CCCCCCOc1cc2oc3nc(=O)[nH]c(=O)c-3cc2cc1Cl [compound 37]
IC50 (c-Rel protein): < 0.5 µM
